From ChEMBL document CHEMBL3039007, “Structure-based identification of OATP1B1/3 inhibitors” (Mol Pharmacol, 2013) come the findings set out here.

Data set [1] has as its target T1, Solute carrier organic anion transporter family member 1B1 (Homo sapiens, UniProt Q9Y6L6).
T1 sequence (Q9Y6L6 whole entry): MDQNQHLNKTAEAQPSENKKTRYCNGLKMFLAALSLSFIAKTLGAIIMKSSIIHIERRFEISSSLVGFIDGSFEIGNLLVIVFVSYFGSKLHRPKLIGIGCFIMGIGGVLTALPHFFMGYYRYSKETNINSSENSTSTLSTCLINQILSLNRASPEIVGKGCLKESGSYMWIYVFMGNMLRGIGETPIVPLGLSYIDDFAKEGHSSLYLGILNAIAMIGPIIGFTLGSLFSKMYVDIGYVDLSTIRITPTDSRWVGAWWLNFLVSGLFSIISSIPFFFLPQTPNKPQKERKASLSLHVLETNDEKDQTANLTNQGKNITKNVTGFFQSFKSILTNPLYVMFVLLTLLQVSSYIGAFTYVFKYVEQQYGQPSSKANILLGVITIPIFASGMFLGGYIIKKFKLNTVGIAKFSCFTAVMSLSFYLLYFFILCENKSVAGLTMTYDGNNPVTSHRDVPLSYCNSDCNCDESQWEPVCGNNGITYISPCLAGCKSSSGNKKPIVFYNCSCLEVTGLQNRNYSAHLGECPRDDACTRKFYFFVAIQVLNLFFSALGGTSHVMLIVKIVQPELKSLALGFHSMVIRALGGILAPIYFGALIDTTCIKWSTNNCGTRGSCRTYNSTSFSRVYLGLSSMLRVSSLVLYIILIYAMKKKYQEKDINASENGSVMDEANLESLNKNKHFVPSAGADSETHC
The note with it: chinese hamster, cho, 10 µM.

Data set [2] has as its target T2, Solute carrier organic anion transporter family member 1B3 (Homo sapiens, UniProt Q9NPD5).
T2 sequence (Q9NPD5 whole entry): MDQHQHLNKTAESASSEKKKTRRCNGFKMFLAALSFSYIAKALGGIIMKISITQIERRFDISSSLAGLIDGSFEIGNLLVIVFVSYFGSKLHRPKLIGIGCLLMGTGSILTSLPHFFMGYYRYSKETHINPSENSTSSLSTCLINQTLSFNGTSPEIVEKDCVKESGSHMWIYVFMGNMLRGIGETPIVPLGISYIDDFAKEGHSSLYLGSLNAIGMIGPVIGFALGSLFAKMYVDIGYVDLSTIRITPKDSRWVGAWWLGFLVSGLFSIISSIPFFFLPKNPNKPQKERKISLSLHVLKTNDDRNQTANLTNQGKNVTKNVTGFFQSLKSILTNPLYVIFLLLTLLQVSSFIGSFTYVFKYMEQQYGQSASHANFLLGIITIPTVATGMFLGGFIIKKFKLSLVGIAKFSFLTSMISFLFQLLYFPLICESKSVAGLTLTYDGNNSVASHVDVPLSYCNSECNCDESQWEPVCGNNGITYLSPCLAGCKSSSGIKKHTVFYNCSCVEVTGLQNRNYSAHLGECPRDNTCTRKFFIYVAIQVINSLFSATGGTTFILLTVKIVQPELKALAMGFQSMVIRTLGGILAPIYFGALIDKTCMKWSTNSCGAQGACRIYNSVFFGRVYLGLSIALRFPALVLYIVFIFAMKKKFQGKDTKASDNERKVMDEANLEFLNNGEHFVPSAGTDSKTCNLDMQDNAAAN
Conditions: chinese hamster, cho, 10 µM.

What is called residual activity is the signal under treatment as a percentage of the control signal.

Regarding `CCCCC(=O)N(Cc1ccc(-c2ccccc2-c2nnn[nH]2)cc1)[C@H](C(=O)O)C(C)C`, the figures for the residual activity in data set [1] and in data set [2] were 67.47% and 56.31%, respectively.
`NCC[C@H](O)C(=O)N[C@@H]1C[C@H](N)[C@@H](O[C@H]2O[C@H](CN)[C@@H](O)[C@H](O)[C@H]2O)[C@H](O)[C@H]1O[C@H]1O[C@H](CO)[C@@H](O)[C@H](N)[C@H]1O.O=S(=O)(O)O`: the residual activity in data set [1] was 72.99%; in data set [2] it was 92.21%.
On the same counts, the results for `CN[C@@H]1[C@H](O)[C@H](NC)[C@H]2O[C@@]3(O)C(=O)C[C@@H](C)O[C@H]3O[C@@H]2[C@H]1O.Cl` are 89.17% and 96.23%.
As to `CCCCCC(C)N.O=S(=O)(O)O` (stereo unspecified), the residual activity amounted to 70.88% in data set [1] and 90.66% in data set [2].
The matching figures for `COC(=O)CCCOc1ccc(Cl)cc1Cl`: 118.1% and 115.5%.
In the case of `CC[C@@H](CO)NCCN[C@@H](CC)CO.Cl`, the values for the residual activity in data set [1] and in data set [2] were 71.57% and 86.34%, respectively.
On the same counts, the results for `O=C(O)CCCOc1ccc(Cl)cc1Cl` are 123.3% and 112%.
As to `CCCCCCCCCCCCCCCC[n+]1ccccc1.O.[Cl-]`, the residual activity amounted to 77.95% in data set [1] and 166.6% in data set [2].
Consider `CC(=O)[C@H]1CC[C@H]2[C@@H]3CC[C@@H]4C[C@H](O)CC[C@]4(C)[C@H]3C[C@H](O)[C@]12C`, for which the residual activity is recorded as 97.69% in data set [1] and 117.8% in data set [2].
Regarding `COC(=O)[C@@H]1OC(=O)[C@H]2O[C@]23[C@]2(C)[C@H](O)C[C@H]4C(C)(C)[C@H](OC(C)=O)C[C@H](OC(C)=O)[C@]4(C)[C@H]2CC[C@@]13C`, the residual activity in data set [1] came to 70.09%; in data set [2] it was 83.24%.
In the case of `CC(C)=CCC[C@]1(C)C=Cc2c(O)c3c(c(CC=C(C)C)c2C1)O[C@]12C(=C[C@@H]4C[C@H]1C(C)(C)O[C@@]2(C/C=C(/C)C(N)=O)C4=O)C3=O`, the residual activity in data set [1] turned out to be 57.81%; in data set [2], 70.77%.
As for `CC(=O)O[C@H]1C[C@@H](OC(C)=O)C(C)(C)[C@@H]2C[C@@H](OC(C)=O)[C@]3(C)[C@H](CC[C@]4(C)[C@H](c5ccoc5)C(=O)[C@H]5O[C@@]534)[C@@]12C`, the values for the residual activity in data set [1] and in data set [2] were 26.02% and 57.61%, respectively.
For the molecule `CC(=O)O[C@H]1C[C@@H](OC(C)=O)C(C)(C)[C@@H]2C[C@@H](OC(C)=O)[C@@]3(C)C4=CC(=O)O[C@@H](c5ccoc5)[C@]4(C)CC[C@@H]3[C@@]12C`, the residual activity turned out to be 107.2% in data set [1] and 104.2% in data set [2].
Consider `CC1(C)C(=O)C=C[C@]2(C)[C@H]3CC[C@@]4(C)[C@H](c5ccoc5)OC(=O)[C@H]5O[C@]54[C@]3(C)C=C[C@@H]12`, for which the residual activity is on record as 56.92% in data set [1] and 75.29% in data set [2].
As to `CC1CC[C@]2(OC1)OC1C[C@H]3[C@@H]4CC[C@H]5C[C@@H](O)CC[C@]5(C)C4=CC[C@]3(C)C1[C@@H]2C` (stereo partly specified), the residual activity in data set [1] was found to be 109.1%; in data set [2] it was 108.3%.
On the same counts, the results for `CC(=O)O[C@H]1C[C@@H](OC(C)=O)C(C)(C)[C@@H]2CC(=O)[C@]3(C)[C@H](CC[C@@]4(C)[C@H](C(=O)O)OC(=O)[C@H]5O[C@]543)[C@@]12C` are 72.69% and 72.75%.
Turning to `COC(=O)[C@@]1(C)CCC[C@]2(C)c3ccc(O)c(C(C)C)c3CC[C@@H]12`, the residual activity in data set [1] is 90.51%; in data set [2], 122.1%.
On the same counts, the results for `CC(=O)Oc1ccc2c(c1C(C)C)CC[C@H]1C(C)(C)CCC[C@]21C` are 70.34% and 105.1%.
On to `CC(=O)O[C@@H]1C[C@H]2C(C)(C)C(=O)[C@H]3O[C@H]3[C@]2(C)[C@H]2CC[C@@]3(C)[C@H](c4ccoc4)OC(=O)[C@H]4O[C@]43[C@@]21C`, for which the residual activity in data set [1] is 58.52%; in data set [2], 88.38%.
For `CC1(C)[C@H](O)C[C@H](O)[C@]2(C)[C@H]3CC[C@@]4(C)[C@H](c5ccoc5)OC(=O)[C@H]5O[C@]54[C@]3(C)C(=O)C[C@@H]12`, the residual activity in data set [1] was 48.25%; in data set [2], 93.94%.
Take `CC(C)c1c(O)c(-c2cc3c(c(C(C)C)c2O)CC[C@H]2C(C)(C)CCC[C@]32C)cc2c1CC[C@H]1C(C)(C)CCC[C@]21C`: the residual activity in data set [1] came out at 64.65%; in data set [2], 91.38%.
On to `C[C@]12CC[C@@H]3c4ccc(OCc5ccccc5)cc4CC[C@H]3[C@@H]1C[C@@H](O)[C@@H]2O`, for which the figures for the residual activity in data set [1] and in data set [2] were 100% and 102.7%, respectively.
On the same counts, the results for `CC(C)CCCCCOC(=O)COc1cc(Cl)c(Cl)cc1Cl` are 105.5% and 93.76%.
For `C[C@]12CC[C@@H]3c4ccc(OS(=O)(=O)[O-])cc4CC[C@H]3[C@@H]1CC[C@@H]2O.[Na+]`, the figures for the residual activity in data set [1] and in data set [2] were 53.18% and 95.65%, respectively.
On to `COc1ccc2c(c1)CC[C@@H]1[C@@H]2CC[C@]2(C)[C@@H](O)[C@H](O)C[C@@H]12`, for which the values for the residual activity in data set [1] and in data set [2] were 76.58% and 103.4%, respectively.
The matching figures for `C[C@@H]1CC(Cl)CC[C@H]1C(=O)OC(C)(C)C.C[C@@H]1CCC(Cl)C[C@H]1C(=O)OC(C)(C)C` (stereo partly specified): 121% and 115.1%.
In the case of `CCC(=O)OCC(=O)[C@]1(OC(=O)CC)[C@H](C)C[C@H]2[C@@H]3CCC4=CC(=O)C=C[C@]4(C)[C@@]3(F)[C@@H](O)C[C@]21C`, the residual activity was 76.42% in data set [1] and 77.45% in data set [2].
Take `CC1(C)C(=O)[C@@H]2O[C@@H]2[C@]2(C)[C@H]3CC[C@@]4(C)[C@H](c5ccoc5)OC(=O)[C@H]5O[C@]54[C@]3(C)C(=O)C[C@@H]12`: the residual activity in data set [1] came to 68.02%; in data set [2], 74.75%.
As for `CC1(C)[C@H](O)CC(=O)[C@]2(C)[C@H]3CC[C@@]4(C)[C@H](c5ccoc5)OC(=O)[C@H]5O[C@]54[C@]3(C)C(=O)C[C@@H]12`, the figures for the residual activity in data set [1] and in data set [2] were 33.49% and 61.45%, respectively.
Regarding `CC(=O)O[C@H]1CC[C@@]23C(=O)O[C@]45CC[C@H](C6=CC(=O)OC6)[C@@]4(C)CC[C@H]2[C@H]5CC[C@]3(O)C1`, the residual activity in data set [1] came out at 59.99%; in data set [2], 85.76%.
For `CC=CC(=O)N(CC)c1ccccc1C`, the residual activity in data set [1] is 71.83%; in data set [2] it was 72.95%.
For `O=C(Nc1ccccc1)Nc1ccccc1`, the residual activity came out at 86.66% in data set [1] and 104.3% in data set [2].
Regarding `O=C(O)CCCN1C(=O)c2cccc3cccc(c23)C1=O`, the residual activity is 113.1% in data set [1] and 112.7% in data set [2].
Regarding `CCOC(N)=O`, the residual activity in data set [1] was 109.1%; in data set [2] it was 101.6%.
Take `Cc1cc(-c2ccccc2)nnc1NCCN1CCOCC1.Cl`: the residual activity in data set [1] was determined as 73.96%; in data set [2], 96.66%.
Regarding `Cc1onc(-c2ccccc2)c1C(=O)N[C@@H]1C(=O)N2[C@@H]1SC(C)(C)[C@@H]2C(=O)[O-].[Na+]`, the residual activity worked out at 76.67% in data set [1] and 90.07% in data set [2].
The matching figures for `C=CC1=C(C(=O)O)N2C(=O)[C@@H](NC(=O)/C(=N\O)c3csc(N)n3)[C@H]2SC1`: 92.13% and 78.64%.
With `CCN(CC)C(=S)SSC(=S)N(CC)CC`, the residual activity turned out to be 71.59% in data set [1] and 64.06% in data set [2].
